Assays:
[1] = test system: Human breast adenocarcinoma cell line (MDA-MB-231); experiment: Cytotoxicity test / growth inhibition, MDA-MB-231; type: cell-based; details: MDA-MB-231, 48 hours, cell counting
Procedure: (§1) Cells were purchased from American Type Culture Collection (ATCC, Manassas, Va., USA). The LNCaP (ATCC® CRL-1740™), A549 (ATCC® CCL-185™), MDA-MB-231 (ATCC® CRM-HTB-26™), 22Rv1 (ATCC® CRL-2505™), HCT-116 (ATCC® CCL-247™) and PC3 (ATCC® CRL-1435™) cells were maintained in Roswell Park Memorial Institute 1640 medium (RPMI; Euroclone, ECB9006L) supplemented with 10% fetal bovine serum (Euroclone; ECS0180L), 2 mM L-glutamine, 100 units/mL penicillin and […] streptomycin at 37° C. in an atmosphere of 5% CO2/air. DU145 (ATCC® HTB-81™), and DAOY (ATCC® HTB-186™) cells were maintained in Eagle's minimal essential medium (EMEM; Euro-clone, ECM0445L) supplemented with 10% fetal bovine serum (Euroclone; ECS0180L), 2 mM L-glutamine, 100 units/ml penicillin and […] streptomycin at 37° C. in an atmosphere of 5% CO2/air. SH-SY5Y (ATCC® CRL-2266™), DBRTG (ATCC® CRL-2020™), HeLa (ATCC® CCL-2™), HN6 cells (kindly provided by Dr Silvio Gutkind, UCSD Medical Center, Moores Cancer Center USA, Chen J. J et al, Oncotarget 2013, 4, 206-217)), U2OS (ATCC® HTB-96™), RD18 cells (kindly provided by Dr P. Boccuni Memorial Sloan-Kettering Cancer Center, New York, USA Vella S. et al. Clin Epigenetics. 2015 6; 7-82), cells were maintained in Dulbecco's modified Eagle's medium (DMEM; Euroclone, ECB7501L) supplemented with 10% fetal bovine serum (Euroclone; ECS0180L), 2 mM L-glutamine, 100 units/ml penicillin and 100 mg/mL streptomycin at 37° C. in an atmosphere of 5% CO2/air.
(§2) Cell lines were seeded at appropriate densities in 2 mL growth medium in 6-wells culture plates 24 hours before the treatment with the inhibitor compounds. After 24 h the culture medium was removed and fresh medium containing increasing concentrations of chemical compounds was added to cells. The fixed final concentrations were: 0.1 μM, 1 μM, 10 μM, 100 μM. DMSO was the vehicle used for dilution of the compounds and its final concentration on cells was less than 0.2%. Medium-only containing wells were included as controls. Cells were incubated 48 hours with drugs and, then, cell viability was evaluated.
(§3) Cells were detached from each well of the 6-wells plates with 300 μL of Trypsin and suspended in culture medium to a final volume of 1 mL. Cell viability was then assessed through cell counting. Cells were diluted in 1:50 ratio of an isotonic buffered diluent, Isoton (Backman Coulter), following the manufacturer's instructions, and counted using an automated cell counter (Z2 series Coulter Counter, Beckman Coulter). Each cell count was performed in three replicates. The values corresponding to the relative survival of cells in presence of each chemical compound at single concentrations were normalized to the untreated controls. Then, the half maximal inhibitory concentration (IC50) value, which represent the drug concentration that is required to induce a 50% growth inhibition in vitro, was calculated with GraphPad Prism 6.0 software using the best fitting sigmoid curve.

[2] = test system: Human adenocarcinomic alveolar basal epithelial cell line (A549); experiment: Cytotoxicity test / growth inhibition, A549; type: cell-based; details: A549, 48 hours, cell counting
Procedure: as §1, §2, §3

[3] = test system: Human head and neck squamous carcinoma cell line (HN6); experiment: Cytotoxicity test / growth inhibition, HN6; type: cell-based; details: HN6, 48 hours, cell counting
Procedure: as §1, §2, §3

[4] = test system: Human colorectal carcinoma cell line (HCT116); experiment: Cytotoxicity test / growth inhibition, HCT116; type: cell-based; details: HCT-116, HCT116, 48 hours, cell counting
Procedure: as §1, with “2015 6; 7-82), cells were maintained in Dulbecco's modified Eagle's medium (DMEM; Euroclone, ECB7501L) supplemented with 10% fetal bovine serum (Euroclone; ECS0180L), 2 mM L-glutamine, 100 units/ml penicillin and 100 mg/mL streptomycin at 37° C. in an atmosphere of 5% CO2/air.” left out
(§4) Cell lines were seeded at appropriate densities in 2 mL growth medium in 6-wells culture plates 24 hours before the treatment with the inhibitor compounds. […] Cells were incubated 48 hours with drugs and, then, cell viability was evaluated.
(§5) Cells were detached from each well of the 6-wells plates with 300 μL of Trypsin and suspended in culture medium to a final volume of 1 mL. Cell viability was then assessed through cell counting. Cells were diluted in 1:50 ratio of an isotonic buffered diluent, Isoton (Backman Coulter), following the manufacturer's instructions, and counted using an automated cell counter (Z2 series Coulter Counter, Beckman Coulter). […]

[5] = test system: Human Prostate cell line derived from brain metastasis (DU-145); experiment: Cytotoxicity test / growth inhibition, DU-145; type: cell-based; details: DU-145, 48 hours, cell counting
Procedure: as §1, §2
as §5, with “Coulter). Each cell count was performed in three replicates. The values corresponding to the relative survival of cells in presence of each chemical compound at single concentrations were normalized to the untreated controls.” for “Coulter).”

[6] = test system: Human Prostate cancer cell line (PC3); experiment: Cytotoxicity test / growth inhibition, PC3; type: cell-based; details: PC3, 48 hours, cell counting
Procedure: as §1, with “2015 6; 7-82), cells were maintained in Dulbecco's modified Eagle's medium (DMEM; Euroclone, ECB7501L) supplemented with 10% fetal bovine serum (Euroclone; ECS0180L), 2 mM L-glutamine, 100 units/ml penicillin and 100 mg/mL streptomycin at 37° C. in an atmosphere of 5% CO2/air.” left out
as §4, §5

[7] = target: T1, Human recombinant DDX3 (DDX3 wt helicase) (Homo sapiens, UniProt O00571); experiment: Helicase assay (anti-enzymatic activity against the DDX3 helicase); type: biochemical; details: DDX3 helicase activity, dsRNA unwinding; n.a = Compound not active; read-out: ID50 (the source's name)
T1 construct: made in house
Procedure: The helicase activity of DDX3 wt was monitored by measuring the conversion of a double stranded (ds) RNA (labelled at the 5′-end of one strand with a 6-FAM fluorescent) into single stranded (ss) nucleic acid. A final concentration of 25 nM RNA substrate was used in the experiments, unless otherwise stated. Reactions were performed in 50 mM TrisHCl pH 7.5, 1 mM DTT, 0.2 mg/ml BSA, 5% glycerol and 100 μM ATP, 10 mM MgCl2 at 37° C. degrees for 10′ and stopped by adding EDTA 50 mM pH 8. Products were separated through non-denaturating 8% PAGE at 5 W for 4 hours in TBE buffer at 4° C. Substrates and products were quantified by laser scanning densitometry (Thyphoon-TRIO, GE Healthcare).
Human recombinant DDX3 was cloned, expressed and purified as described (Franca et al. Proteins 2007, 67, 1128-37).

HIV = details: viral load of PBMCs infected with HIV; cited from earlier work
MOLT-4 T-lymphocytic = details: cited from earlier work
HIV-1 (IIIB) = HIV-1 (IIIB) in MT4-cells; cited from earlier work
ATPase activity of DDX3 = ATPase activity of DDX3 (Homo sapiens, UniProt O00571); details: Maga et al. 2008; cited from earlier work
Chain of ATPase activity of DDX3 (O00571 whole entry): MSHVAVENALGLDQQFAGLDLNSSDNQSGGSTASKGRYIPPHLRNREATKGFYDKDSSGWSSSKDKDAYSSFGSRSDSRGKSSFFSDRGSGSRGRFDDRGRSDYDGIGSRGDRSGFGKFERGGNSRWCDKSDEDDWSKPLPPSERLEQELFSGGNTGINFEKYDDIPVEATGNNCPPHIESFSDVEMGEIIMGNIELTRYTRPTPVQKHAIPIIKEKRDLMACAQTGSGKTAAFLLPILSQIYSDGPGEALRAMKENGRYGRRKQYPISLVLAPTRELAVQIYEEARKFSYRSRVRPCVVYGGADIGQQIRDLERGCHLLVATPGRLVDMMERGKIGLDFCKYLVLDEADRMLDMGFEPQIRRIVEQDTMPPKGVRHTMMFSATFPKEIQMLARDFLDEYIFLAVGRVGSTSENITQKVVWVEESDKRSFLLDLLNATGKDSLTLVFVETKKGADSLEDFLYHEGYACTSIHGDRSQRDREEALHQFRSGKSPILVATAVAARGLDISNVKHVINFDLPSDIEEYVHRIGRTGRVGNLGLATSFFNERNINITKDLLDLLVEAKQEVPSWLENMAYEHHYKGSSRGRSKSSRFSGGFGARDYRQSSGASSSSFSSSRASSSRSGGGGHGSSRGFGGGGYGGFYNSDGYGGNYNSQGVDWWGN

T1 sequence (O00571 whole entry): as above

What does the source list for `CCCCc1nnc(-c2ccc(NC(=O)Nc3ccccc3C(F)(F)F)cc2)o1` [Compound 112, 1-(4-(5-butyl-1,3,4-oxadiazol-2-yl)phenyl)-3-(2-(trifluoromethyl)phenyl)urea]?
IC50 [1]: 33.6 µM; IC50 [2]: 57.1 µM; IC50 [3]: 75.7 µM; IC50 [4]: 38.2 µM

With `CCCCc1nnc(-c2ccc(NC(=O)Nc3ccccc3C(F)(F)F)cc2)[nH]1` [Compound 119, 1-(4-(5-butyl-4H-1,2,4-triazol-3-yl)phenyl)-3-(2-(trifluoromethyl)phenyl)urea] as the molecule, how does the IC50 [5] read?
The IC50 was 12.9 µM.

And the IC50 [6]?
Its IC50 is 46.3 µM.

And the IC50 [2]?
The IC50 was 14 µM.

And the IC50 [7]?
Its IC50 is 1 µM.

Which EC50 (HIV) does the source give for `Cc1ccccc1NC(=O)Nc1cccc([N+](=O)[O-])c1` [EI01D] here?
The EC50 was 10 µM.

With `O=C(CN1C(=O)/C(=C/c2cccc(Br)c2)SC1=S)Nc1ccccc1O` [FE15] as the molecule, how does the CC50 (MOLT-4 T-lymphocytic) read?
The CC50 was over 200 µM.

What about the EC50 (HIV-1 (IIIB)) of the same molecule?
Its EC50 is 86.7 µM.

What about the Ki (ATPase activity of DDX3) of the same molecule?
Its Ki is 5.4 µM.

Source: patent US11000512B2, “Use of DDX3 inhibitors as antiproliferative agents” (AZIENDA OSPEDALIERA UNIVERSITARIA SENESE, priority 2016, dated 2021)
